By Ki is commonly meant a measure of affinity in units of concentration, obtained from inhibition or displacement. The EC50 is the concentration giving half of the maximal effect. Higher therefore signals a need for much substance. As a reminder, the IC50 is the concentration needed to halve the response being measured.

The target of data set [1] is T1, cloned human κ opioid receptor (Homo sapiens, UniProt P41145).
T1 construct: expressed in transfected cells
The data set is described as follows: [3H]diprenorphine binding to cloned human κ opioid receptor. Here is the method: (§1) IC50 values were obtained by nonlinear analysis of the data using GraphPad Prism version 3.00 for Windows (GraphPad Software, San Diego). Ki values were obtained by Cheng-Prusoff corrections of IC50 values.
(§2) After dilution in buffer A and homogenization as before, membrane proteins (10-80 μg) in 250 μL were added to mixtures containing test compound and [^3H]diprenorphine (0.5 to 1.0 nM, 40,000 to 50,000 dpm) in 250 μL of buffer A in 96-well deep-well polystyrene titer plates (Beckman). After incubation at room temperature for one hour, the samples were filtered through GF/B filters that had been presoaked in a solution of 0.5% (w/v) polyethylenimine and 0.1% (w/v) bovine serum albumin in water. The filters were rinsed 4 times with 1 mL of cold 50 mM Tris HCl, pH 7.8 and radioactivity remaining on the filters determined by scintillation spectroscopy. Nonspecific binding was determined by the minimum values of the titration curves and was confirmed by separate assay wells containing 10 μM naloxone.
To determine the equilibrium dissociation constant for the inhibitors (Ki), radioligand bound (cpm) in the presence of various concentrations of test compounds was measured. […] The nonlinear regression fit was performed using the program Prism® (GraphPad Software, San Diego, Calif.).

Data set [2] has as its target T2, cloned human κ receptors (Homo sapiens, UniProt P41145).
T2 construct: expressed in transfected cells
The data set is described as follows: [35S]GTPγS binding stimulation, membranes containing cloned human κ receptors. The conditions noted are these: half-maximal stimulation of [35S]GTPγS binding, cloned human κ receptor. Type of data set: biochemical. Here is the method: The potencies of the agonists were assessed by their abilities to stimulate [^35S]GTPγS binding to membranes containing the cloned human κ receptors.
To determine the EC50 value, which was the concentration to give half-maximal stimulation of [^35S]GTPγS binding, the amount of [^35S]GTPγS bound in the presence of various concentrations of agonists was measured. The EC50 value was then determined.
(Binding of GTPγS marks nucleotide exchange on a G protein.)

In data set [3] the target is T3, cloned human μ opioid receptor (Homo sapiens, UniProt P35372).
T3 construct: expressed in transfected cells
T3 sequence (P35372 whole entry): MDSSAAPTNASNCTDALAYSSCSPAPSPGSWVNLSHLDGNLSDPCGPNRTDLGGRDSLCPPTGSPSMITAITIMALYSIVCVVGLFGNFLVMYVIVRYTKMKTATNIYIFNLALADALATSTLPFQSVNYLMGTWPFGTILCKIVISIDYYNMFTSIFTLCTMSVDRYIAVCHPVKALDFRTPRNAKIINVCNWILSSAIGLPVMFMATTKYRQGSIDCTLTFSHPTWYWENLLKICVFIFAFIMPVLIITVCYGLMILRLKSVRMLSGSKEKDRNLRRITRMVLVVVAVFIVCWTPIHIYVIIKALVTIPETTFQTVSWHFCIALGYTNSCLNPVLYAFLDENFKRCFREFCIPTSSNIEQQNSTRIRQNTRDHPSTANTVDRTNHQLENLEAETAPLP
The data set is described as follows: [3H]diprenorphine binding to cloned human μ opioid receptor. As for the experimental part: as §1, §2
(§3) To determine the equilibrium dissociation constant for the inhibitors (Ki), radioligand bound (cpm) in the presence of various concentrations of test compounds was measured. […] The nonlinear regression fit was performed using the program Prism® (GraphPad Software, San Diego, Calif.). The Ki values were then determined from the […] values by the following equation, [formula] • where [ligand] is the concentration of radioligand; and • Kd is the equilibrium dissociation constant for the radioligand.

Data set [4] deals with T4, cloned human δ opioid receptor (Homo sapiens, UniProt P41143).
T4 construct: expressed in transfected cells
T4 sequence (P41143 whole entry): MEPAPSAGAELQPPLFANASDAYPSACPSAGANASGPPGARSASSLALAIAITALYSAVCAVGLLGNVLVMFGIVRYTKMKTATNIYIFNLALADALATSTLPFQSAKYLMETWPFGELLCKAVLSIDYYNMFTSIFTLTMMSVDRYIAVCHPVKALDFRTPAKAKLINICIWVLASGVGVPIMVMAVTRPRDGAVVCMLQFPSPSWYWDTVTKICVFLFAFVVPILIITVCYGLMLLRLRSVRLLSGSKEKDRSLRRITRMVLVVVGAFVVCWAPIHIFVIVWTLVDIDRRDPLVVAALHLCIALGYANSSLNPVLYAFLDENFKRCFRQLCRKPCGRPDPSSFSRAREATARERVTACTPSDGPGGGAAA
The data set is described as follows: [3H]diprenorphine binding to cloned human δ opioid receptor. As for the experimental part:
as §1, §2, §3

Data set [5] addresses T5, CYP2D6 (Homo sapiens, UniProt P10635).
T5 construct: purchased BD Biosciences
Description: Inhibition of CYP2D6 catalyzed conversion of MAMC to HAMC. Type of data set: in vitro ADME. The conditions noted are these: MAMC to HAMC conversion; for IC50: read-out: IC50(CYP2D6). Here is the method:
Inhibition of CYP2D6 Catalyzed Conversion of MAMC to HAMC
Microsomes containing baculovirus expressed human recombinant CYP2D6 and MAMC were purchased from BD Biosciences. The method is a modification of the method provided by BD Biosciences.
• Assay Buffer=50 mM KPO4, 15 μg/mL NADP^+, 0.30 mg/mL glucose-6-phosphate, 0.20 mg/mL MgCl2, 0.96 U/mL glucose-6-phosphate dehydrogenase, 2.5 μM MAMC, pH 7.4. • Dilution Buffer=50 mM KPO4, pH 7.4 • Enzyme Buffer=150 mM KPO4, pH 7.4 • Stop Solution=80% acetonitrile, 20% 0.5 M Tris Base Procedure:
The assays were done in black 96 well plates (VWR Cat# 22221-572) and contained: 40 μL assay buffer, 10 μL test compound in dilution buffer and 50 μL of 10-15 pmol/mL CYP2D6 in enzyme buffer. Final concentrations: (100 mM KPO4, pH 7.4, 7.9 μM NADP^+, 0.36 mM glucose-6-phosphate, 0.4 mM MgCl2, 0.38 U/mL glucose-6-phosphate dehydrogenase, 1 μM MAMC (BD Biosciences), 0.5 pmol CYP2D6 (BD Biosciences))
For large experiments, assay buffer and test compound were added using the MiniTrak IV (Packard Biosciences), otherwise they were added using 25-250 μL and 5-100 μL 8 channel electronic pipettors (BioHit). CYP2D6 was added using 25-250 μL 8 channel electronic pipettor.
Titrations are done in either 96 well deep-well plates (Beckman) or 96 well microtiter plates (Costar), an initial dilution in dilution buffer is prepared from stock solutions in DMSO to start either 8 (1:6) or 12 (1:3.15) serial dilutions. For 1:6 dilutions, 50 μL for each dilution is transferred to 250 μL dilution buffer. For 1:3.15 dilutions, 50 μL for each dilution is transferred to 108 μL dilution buffer. Further details on concentrations will be provided in each experiment. Titrations are done using either 25-250 μL 8 channel electronic pipettor, 30-300 μL 12 channel manual pipettor (Spectrum), or the Multiprobe II. For screening, dilution plates are prepared in dilution buffer in 96 well microtiter plates from masterplates in 100% DMSO using the Multiprobe II or MiniTrak IV. After assay buffer and test compound has been added, the plates and the enzyme buffer are prewarmed at 37° C. for 15 minutes. After prewarming, CYP2D6 is added to then enzyme buffer and then added to the assay plate using 25-250 μL 8 channel electronic pipettor and the plates are incubated for 15 minutes at 37° C. After incubation, 50 μL stop solution is added using 25-250 μL 8 channel electronic pipettor. The plates are then counted on the Fusion (Packard Biosciences) for 4 sec/well using and excitation filter of 390 nm and an emission filter of 460 nm, intensity setting of 1, high detector sensitivity.
Non-specific relative fluorescent units (RFU) are determined in the presence of 10 μM quinidine in wells A1, B1, and C1 of each plate and total RFU determined in wells D1, E1, F1 in the absence of test compound. Specific HAMC production is the difference between total and nonspecific. For each compound, a percent inhibition of HAMC production is calculated by: % I=(1−(A/B))*100 • where A=cpm specifically bound for test compound • B=cpm specifically bound in the absence of test compound For experiments where the plates are registered in the biological database, % I is determined automatically by the biological database. Titrations
IC50's are calculated using nonlinear regression to a one-site model using GraphPad Prism or a VB algorithm fitting the data to that equation.

The target of data set [6] is CYP2C9 (Homo sapiens, UniProt P11712). The data set is described as follows: Inhibition of CYP2C9 conversion of dibenzylfluorescein to fluorescein. Type of data set: in vitro ADME. The conditions noted are these: DBF to fluorescein conversion; read-out: IC50(CYP2C9). As for the experimental part: (§4) Inhibition of CYP2C9 and CYP3A4
CYP2C9, sequence (P11712 whole entry): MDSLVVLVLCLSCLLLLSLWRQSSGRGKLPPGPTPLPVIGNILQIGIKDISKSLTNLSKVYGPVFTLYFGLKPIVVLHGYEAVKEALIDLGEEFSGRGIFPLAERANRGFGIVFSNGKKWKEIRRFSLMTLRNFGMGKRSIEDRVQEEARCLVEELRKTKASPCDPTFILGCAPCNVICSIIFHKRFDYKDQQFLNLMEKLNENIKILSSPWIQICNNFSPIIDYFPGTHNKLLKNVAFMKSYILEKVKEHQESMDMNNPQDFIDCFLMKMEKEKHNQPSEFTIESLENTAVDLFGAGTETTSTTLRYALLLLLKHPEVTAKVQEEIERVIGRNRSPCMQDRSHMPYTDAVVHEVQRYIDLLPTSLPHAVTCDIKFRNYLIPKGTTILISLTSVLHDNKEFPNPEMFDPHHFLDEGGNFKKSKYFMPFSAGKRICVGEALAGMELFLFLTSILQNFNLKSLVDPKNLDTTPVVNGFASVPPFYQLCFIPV
(§5) These assays were carried out as described using CYP2C9 and CYP3A4 conversion of dibenzylfluorescein (DBF) to fluorescein (F).

The target of data set [7] is CYP3A4 (Homo sapiens, UniProt P08684). Description: Inhibition of CYP3A4 conversion of dibenzylfluorescein to fluorescein. Type of data set: in vitro ADME. The conditions noted are these: DBF to fluorescein conversion; read-out: IC50(CYP3A4). As for the experimental part: as §4, §5
CYP3A4, sequence (P08684 whole entry): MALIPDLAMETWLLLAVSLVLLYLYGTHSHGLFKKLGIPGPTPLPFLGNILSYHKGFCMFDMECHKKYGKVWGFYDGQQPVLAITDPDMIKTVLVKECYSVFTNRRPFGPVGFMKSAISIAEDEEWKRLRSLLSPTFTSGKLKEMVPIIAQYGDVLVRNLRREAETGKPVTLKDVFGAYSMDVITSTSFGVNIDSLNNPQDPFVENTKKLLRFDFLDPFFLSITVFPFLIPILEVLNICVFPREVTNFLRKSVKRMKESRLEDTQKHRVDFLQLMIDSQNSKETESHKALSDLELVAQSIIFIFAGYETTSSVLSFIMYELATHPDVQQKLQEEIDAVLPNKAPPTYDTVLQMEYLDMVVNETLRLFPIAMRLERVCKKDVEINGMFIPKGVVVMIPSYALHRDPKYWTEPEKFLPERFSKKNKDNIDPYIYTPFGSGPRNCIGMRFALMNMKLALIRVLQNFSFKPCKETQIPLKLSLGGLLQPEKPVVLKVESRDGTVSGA
For data set [8], the system named is cytochrome P450 enzymes (CYP2D6, CYP3A4, CYP2C9). Description: Overall evaluation of inhibition of major drug metabolizing hepatic cytochrome P450 enzymes. Type of data set: in vitro ADME, human.
[9] abbreviates: inhibition of [3H]diprenorphine binding, cloned human μ receptor, read-out: Ki(μ).

Where a name gives a salt, the structure may show the parent alone. Read-outs that look alike come from different tables or passages of the source. Where only a bound is given, the exact number is not on record here.

T5 sequence (P10635 whole entry): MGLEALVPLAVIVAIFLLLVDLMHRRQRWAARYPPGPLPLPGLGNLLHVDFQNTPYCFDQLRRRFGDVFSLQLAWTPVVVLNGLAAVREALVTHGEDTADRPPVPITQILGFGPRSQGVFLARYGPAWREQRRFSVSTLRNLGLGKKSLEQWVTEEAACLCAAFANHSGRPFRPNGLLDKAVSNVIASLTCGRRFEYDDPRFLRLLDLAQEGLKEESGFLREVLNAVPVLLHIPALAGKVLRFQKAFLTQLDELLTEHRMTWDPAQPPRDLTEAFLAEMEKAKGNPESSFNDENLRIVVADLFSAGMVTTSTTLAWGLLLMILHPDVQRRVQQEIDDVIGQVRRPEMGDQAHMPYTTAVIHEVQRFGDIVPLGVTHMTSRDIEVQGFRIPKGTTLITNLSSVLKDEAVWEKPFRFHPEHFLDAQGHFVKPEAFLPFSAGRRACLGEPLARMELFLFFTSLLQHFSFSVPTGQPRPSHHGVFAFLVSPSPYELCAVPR
T2 sequence (P41145 whole entry): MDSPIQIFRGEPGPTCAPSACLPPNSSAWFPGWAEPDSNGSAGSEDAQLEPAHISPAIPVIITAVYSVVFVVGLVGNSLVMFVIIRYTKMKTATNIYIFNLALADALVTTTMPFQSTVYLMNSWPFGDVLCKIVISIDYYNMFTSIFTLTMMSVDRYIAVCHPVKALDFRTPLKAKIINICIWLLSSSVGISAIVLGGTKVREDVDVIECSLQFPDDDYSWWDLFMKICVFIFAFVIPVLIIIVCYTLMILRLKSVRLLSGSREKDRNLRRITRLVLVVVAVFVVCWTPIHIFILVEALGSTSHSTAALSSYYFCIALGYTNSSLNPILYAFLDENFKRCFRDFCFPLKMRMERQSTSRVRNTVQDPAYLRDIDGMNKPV
T1 sequence (P41145 whole entry): as above

`CC(C)[C@@H](CN1CC[C@H](O)C1)N(C)C(=O)Cc1ccc(CNS(C)(=O)=O)cc1.O=C(O)C(F)(F)F` [Example 28, N-{1-[3-(S)-hydroxy-pyrrolidin-1-ylmethyl]-2-methyl-(S)-propyl}-2-[4-(methanesulfonylamino-methyl)-phenyl]-N-methyl-acetamide trifluoroacetate]: the values for the Ki in data set [1], in data set [3] and in data set [4] were 6.2 nM, more than 3000 nM and more than 3000 nM, respectively. Moreover, the EC50 in data set [2] stood at 79 nM. Besides, the IC50 in data set [5], in data set [6] and in data set [7] was more than 10000 nM in each case. For the same molecule, the “activity toward the cytochrome P450 (summary in words)” value (from here on “activity toward the cytochrome P450”) in data set [8] was “metabolically stable in regard to their activity toward the cytochrome P450”.

`CN(C(=O)Cc1ccc(CNS(=O)(=O)c2cccs2)cc1)[C@H](CN1CC[C@H](O)C1)c1ccccc1` [Example 22, N-{2-[3-(S)-hydroxy-pyrrolidin-1-yl]-1-(S)-Phenyl-ethyl}-N-methyl-2-{4-[(thiophene-2-sulfonylamino)-methyl]-phenyl}-acetamide hydrochloride]: the inhibition constant Ki in data set [1] was found to be 2.9 nM; in data set [3], 1100 nM; in data set [4] it was 56 nM. The EC50 in data set [2] was 4.9 nM. Besides, the IC50 is 5800 nM in data set [5], more than 10000 nM in data set [6] and 4400 nM in data set [7].

In the case of `Cc1noc(C)c1S(=O)(=O)NCc1ccc(CC(=O)N(C)[C@H](CN2CC[C@H](O)C2)c2ccccc2)cc1` [Example 23, 2-{4-[(3,5-dimethyl-isoxazole-4-sulfonylamino)-methyl]-phenyl}-N-{2-[3-(S)-hydroxy-pyrrolidin-1-yl]-1-(S)-phenyl-ethyl}-N-methyl-acetamide hydrochloride], the Ki in data set [1] came out at 25 nM; in data set [3], 1400 nM; in data set [4], 320 nM. For the same molecule, the response in data set [2] was half-maximal at 52 nM (EC50). Also, the IC50 in data set [5] is 11000 nM; in data set [6], more than 10000 nM; in data set [7], 4300 nM.

For `CCCS(=O)(=O)NCc1ccc(CC(=O)N(C)[C@H](CN2CC[C@H](O)C2)c2ccccc2)cc1.Cl` [Example 16, N-{2-[3-(S)-hydroxy-pyrrolidin-1-yl]-1-(S)-phenyl-ethyl}-N-methyl-2-{4-[(propane-1-sulfonylamino)-methyl]-phenyl}-acetamide hydrochloride], the inhibition constant (Ki) turned out to be 730 nM in data set [3] and 100 nM in data set [4]. For the same molecule, the half-maximal inhibitory concentration (IC50) in data set [5], in data set [6] and in data set [7] was more than 10000 nM in each case. For the same molecule, the “activity toward the cytochrome P450” value in data set [8] is “metabolically stable in regard to their activity toward the cytochrome P450”.

`CN(C(=O)Cc1ccc(CN(C)S(C)(=O)=O)cc1)[C@H](CN1CC[C@H](O)C1)c1ccccc1.Cl` [Example 24, N-{2-[3-(S)-hydroxy-pyrrolidin-1-yl]-1-(S)-phenyl-ethyl}-2-{4-[(methanesulfonyl-methyl-amino)-methyl]-phenyl}-N-methyl-acetamide hydrochloride]: the Ki in data set [1] turned out to be 14 nM; in data set [3] it was 200 nM; in data set [4], 540 nM. Further, the EC50 in data set [2] was determined as 55 nM. Also, the IC50 in data set [5], in data set [6] and in data set [7] was more than 10000 nM in each case. Besides, the “activity toward the cytochrome P450” value in data set [8] was “metabolically stable in regard to their activity toward the cytochrome P450”.

As to `CN(C(=O)Cc1ccc(CCNS(C)(=O)=O)cc1)[C@H](CN1CC[C@H](O)C1)c1ccccc1.Cl` [Example 26, N-{2-[3-(S)-hydroxy-pyrrolidin-1-yl]-1-(S)-phenyl-ethyl}-2-[4-(2-methanesulfonylamino-ethyl)-phenyl]-N-methyl-acetamide hydrochloride], the inhibition constant Ki in data set [3] (setting [9]) stood at 790 nM; in data set [4], 110 nM. In data set [5] (human, pH 7.4, probe MAMC (1 µM)), this molecule came in with an IC50 at 15 min of 10000 nM. Further, the IC50 in data set [6] and in data set [7] was more than 10000 nM throughout. Also, the “activity toward the cytochrome P450” value in data set [8] is reported as “metabolically stable in regard to their activity toward the cytochrome P450”.

On to `CN(C(=O)Cc1ccc(CCCNS(C)(=O)=O)cc1)[C@H](CN1CC[C@H](O)C1)c1ccccc1.Cl` [Example 27, N-{2-[3-(S)-hydroxy-pyrrolidin-1-yl]-1-(S)-phenyl-ethyl}-2-[4-(3-methanesulfonylamino-propyl)-phenyl]-N-methyl-acetamide hydrochloride], for which the Ki in data set [3] (setting [9]) is 320 nM; in data set [4] (inhibition of [3H]diprenorphine binding, cloned human δ receptor, read-out: Ki(δ)), 240 nM. Moreover, the half-inhibitory concentration (IC50) in data set [5], in data set [6] and in data set [7] was more than 10000 nM in each case. The “activity toward the cytochrome P450” value in data set [8] is on record as “metabolically stable in regard to their activity toward the cytochrome P450”.

Turning to `CS(=O)(=O)NCc1ccc(CC(=O)N2CCCC[C@H]2CN2CC[C@H](O)C2)cc1.O=C(O)C(F)(F)F` [Example 29, N-[4-(2-{2-[3-(S)-hydroxy-pyrrolidin-1-ylmethyl]-(S)-piperidin-1-yl}-2-oxo-ethyl)-benzyl]-methanesulfonamide trifluoroacetate], the Ki in data set [1] is 2.1 nM; in data set [3] it was more than 3000 nM; in data set [4] it was more than 3000 nM. The 50% effective concentration (EC50) in data set [2] was 27 nM. Besides, the concentration for half-maximal inhibition (IC50) in data set [5], in data set [6] and in data set [7] was more than 10000 nM each time. The “activity toward the cytochrome P450” value in data set [8] is “metabolically stable in regard to their activity toward the cytochrome P450”.

The values are drawn from patent US6992193B2, “Sulfonylamino phenylacetamide derivatives and methods of their use” (Adolor Corporation, priority 2003, dated 2006).
